Measurements as given in patent publication US10925876B2, “Methods for using triazolo-pyrazinyl soluble guanylate cyclase activators in fibrotic disorders” (Merck Sharp & Dohme Corp., priority 2016, dated 2021).

molecular target: T1, sGC α1/β1 heterodimer (Homo sapiens, UniProt Q02108+Q02153); test: Cell-Based sGC Functional Assay (CASA Assay), cGMP generation in CHO-K1/sGC cells;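 also: reference Compound A is a published heme-dependent sGC activator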; conditions: maximum cGMP production of Compound A set to 100% activation, read-out: % Act. (percent activation relative to Compound A)
T1 construct: expressed in transfected cells
T1 sequence (Q02108 1-690): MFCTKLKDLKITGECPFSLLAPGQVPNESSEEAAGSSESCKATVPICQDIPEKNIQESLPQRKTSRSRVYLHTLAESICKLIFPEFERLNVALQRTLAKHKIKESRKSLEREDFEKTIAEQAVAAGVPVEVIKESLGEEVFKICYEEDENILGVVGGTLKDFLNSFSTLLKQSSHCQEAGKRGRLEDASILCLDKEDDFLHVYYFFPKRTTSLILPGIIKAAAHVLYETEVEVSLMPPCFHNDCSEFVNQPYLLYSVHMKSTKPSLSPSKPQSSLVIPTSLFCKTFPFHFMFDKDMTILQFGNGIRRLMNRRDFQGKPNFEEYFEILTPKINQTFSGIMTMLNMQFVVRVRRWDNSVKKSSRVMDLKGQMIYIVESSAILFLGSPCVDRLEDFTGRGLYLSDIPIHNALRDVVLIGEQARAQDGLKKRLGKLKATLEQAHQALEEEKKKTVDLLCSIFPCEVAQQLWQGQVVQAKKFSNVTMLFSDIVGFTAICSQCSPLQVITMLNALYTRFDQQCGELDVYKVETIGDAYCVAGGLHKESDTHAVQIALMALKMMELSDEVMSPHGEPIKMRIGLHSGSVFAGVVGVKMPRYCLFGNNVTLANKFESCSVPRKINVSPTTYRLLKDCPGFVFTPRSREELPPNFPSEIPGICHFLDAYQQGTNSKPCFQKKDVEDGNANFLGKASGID
T1 sequence (Q02153 1-619): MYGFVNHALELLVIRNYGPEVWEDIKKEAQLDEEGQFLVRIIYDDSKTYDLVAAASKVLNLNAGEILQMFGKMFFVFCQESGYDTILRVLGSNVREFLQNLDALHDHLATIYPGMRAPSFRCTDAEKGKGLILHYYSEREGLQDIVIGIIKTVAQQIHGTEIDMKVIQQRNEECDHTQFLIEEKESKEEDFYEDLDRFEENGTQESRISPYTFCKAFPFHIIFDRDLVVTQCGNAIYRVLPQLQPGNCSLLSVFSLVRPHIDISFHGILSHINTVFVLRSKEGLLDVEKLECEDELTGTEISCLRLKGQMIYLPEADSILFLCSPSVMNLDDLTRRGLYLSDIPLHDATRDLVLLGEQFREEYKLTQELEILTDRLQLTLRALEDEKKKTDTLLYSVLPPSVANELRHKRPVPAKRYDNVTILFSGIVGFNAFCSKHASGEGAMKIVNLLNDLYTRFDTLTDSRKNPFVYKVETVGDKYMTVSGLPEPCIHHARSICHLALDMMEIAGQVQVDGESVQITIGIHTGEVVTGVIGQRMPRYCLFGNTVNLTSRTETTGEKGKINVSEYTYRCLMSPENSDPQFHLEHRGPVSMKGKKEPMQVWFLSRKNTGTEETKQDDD
Summary of the method: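 CHO-K1 cells stably expressing human sGC α1/β1, 4×10^5/mL in EBSS with 5 mM MgCl2, 10 mM HEPES, 0.05% BSA, 0.5 mM IBMX, 2.5% DMSO; compounds 1 h at 37 °C ± 1 μM DETA-NO. cGMP by HTRF, expressed as % of reference Compound A maximum; IP and max fold induction from 4P fit.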

Row | Structure (SMILES) | Emax [%]
1 | Nc1nc(-c2cn3ncnc3c(CCC(F)(F)F)n2)nc2c1C(c1ccc(F)c(F)c1)(C1CC1)C(=O)N2 (stereo not drawn) [Example 83A, 4-amino-5-cyclopropyl-5-(3,4-difluorophenyl)-2-(8-(3,3,3-trifluoropropyl)-[1,2,4]triazolo[1,5-a]pyrazin-6-yl)-5H-pyrrolo[2,3-d]pyrimidin-6(7H)-one] | 100
2 | Cc1cnc(C2(C3CC3)C(=O)Nc3nc(-c4cn5ncnc5c(CCC(F)(F)C(F)(F)F)n4)nc(N)c32)cn1 (racemic) [Example 21B, 4-amino-5-cyclopropyl-5-(5-methylpyrazin-2-yl)-2-(8-(3,3,4,4,4-pentafluorobutyl)-[1,2,4]triazolo[1,5-a]pyrazin-6-yl)-5H-pyrrolo[2,3-d]pyrimidin-6(7H)-one] | 99
3 | CC1(c2ccc(F)c(F)c2)C(=O)Nc2nc(-c3cn4ncnc4c(CCC(F)(F)C(F)(F)F)n3)nc(O)c21 (stereo not drawn) [Example 169B, 5-(3,4-Difluorophenyl)-4-hydroxy-5-methyl-2-(8-(3,3,4,4,4-pentafluorobutyl)-[1,2,4]triazolo[1,5-a]pyrazin-6-yl)-5,7-dihydro-6H-pyrrolo[2,3-d]pyrimidin-6-one] | 116
4 | Cc1ccc(C2(C)C(=O)Nc3nc(-c4cn5ncnc5c(CCC(F)(F)C(F)(F)F)n4)nc(N)c32)nc1 (stereo not drawn) [Example 19B, 4-amino-5-methyl-5-(5-methylpyridin-2-yl)-2-(8-(3,3,4,4,4-pentafluorobutyl)-[1,2,4]triazolo[1,5-a]pyrazin-6-yl)-5H-pyrrolo[2,3-d]pyrimidin-6(7H)-one] | 71
5 | CCCc1nc(-c2nc(N)c3c(n2)NC(=O)C3(c2ccc(F)c(F)c2)C2CC2)cn2ncnc12 (stereo not drawn) [Example 58A, 4-amino-5-cyclopropyl-5-(3,4-difluorophenyl)-2-(8-propyl-[1,2,4]triazolo[1,5-a]pyrazin-6-yl)-5H-pyrrolo[2,3-d]pyrimidin-6(7H)-one] | 169
6 | CCCCc1nc(-c2nc(N)c3c(n2)NC(=O)C3(C)c2nnc(C(F)(F)F)o2)cn2ncnc12 (stereo not drawn) [Example 102A, 4-amino-2-(8-butyl-[1,2,4]triazolo[1,5-a]pyrazin-6-yl)-5-methyl-5-(5-(trifluoromethyl)-1,3,4-oxadiazol-2-yl)-5H-pyrrolo[2,3-d]pyrimidin-6(7H)-one] | 132
7 | CC1(c2ccccc2F)C(=O)Nc2nc(-c3cn4ncnc4c(CCC(F)(F)C(F)(F)F)n3)nc(O)c21 (stereo not drawn) [Example 170A, 5-(2-Fluorophenyl)-4-hydroxy-5-methyl-2-(8-(3,3,4,4,4-pentafluorobutyl)-[1,2,4]triazolo[1,5-a]pyrazin-6-yl)-5,7-dihydro-6H-pyrrolo[2,3-d]pyrimidin-6-one] | 125
8 | COc1ccc(C2(C)C(=O)Nc3nc(-c4cn5ncnc5c(CCCC(F)(F)F)n4)nc(O)c32)nc1 (stereo not drawn) [Example 148A, 4-hydroxy-5-(5-methoxypyridin-2-yl)-5-methyl-2-(8-(4,4,4-trifluorobutyl)-[1,2,4]triazolo[1,5-a]pyrazin-6-yl)-5H-pyrrolo[2,3-d]pyrimidin-6(7H)-one] | 96
9 | C[C@@]1(c2ccc(F)cc2)C(=O)Nc2nc(-c3cn4ncnc4c(CCC(F)(F)C(F)(F)F)n3)ncc21 [Example 172A, (S)-5-(4-fluorophenyl)-5-methyl-2-(8-(3,3,4,4,4-pentafluorobutyl)-[1,2,4]triazolo[1,5-a]pyrazin-6-yl)-5,7-dihydro-6H-pyrrolo[2,3-d]pyrimidin-6-one] | 122

More lines, now with the values ahead:

Row | Emax [%] | Structure (SMILES)
10 | 115 | CC1(c2ccc(Cl)cn2)C(=O)Nc2nc(-c3cn4ncnc4c(CCC(F)(F)C(F)(F)F)n3)ncc21 (stereo not drawn) [Example 175A, 5-(5-chloropyridin-2-yl)-5-methyl-2-(8-(3,3,4,4,4-pentafluorobutyl)-[1,2,4]triazolo[1,5-a]pyrazin-6-yl)-5H-pyrrolo[2,3-d]pyrimidin-6(7H)-one]
11 | 162 | CC1(c2ccc(Cl)cn2)C(=O)Nc2nc(-c3cn4ncnc4c(CCCC(F)(F)F)n3)nc(N)c21 (stereo not drawn) [Example 26A, 4-amino-5-(5-chloropyridin-2-yl)-5-methyl-2-(8-(4,4,4-trifluorobutyl)-[1,2,4]triazolo[1,5-a]pyrazin-6-yl)-5H-pyrrolo[2,3-d]pyrimidin-6(7H)-one]
12 | 99 | CCCc1nc(-c2nc(N)c3c(n2)NC(=O)C3(C)c2ccc(Cl)c(F)c2)cn2ncnc12 (stereo not drawn) [Example 55B]
13 | 74 | O=C1Nc2nc(-c3cn4ncnc4c(CCCC(F)(F)F)n3)nc(O)c2C1(c1ccc(F)cn1)C1CC1 (stereo not drawn) [Example 150A, 5-cyclopropyl-5-(5-fluoropyridin-2-yl)-4-hydroxy-2-(8-(4,4,4-trifluorobutyl)-[1,2,4]triazolo[1,5-a]pyrazin-6-yl)-5,7-dihydro-6H-pyrrolo[2,3-d]pyrimidin-6-one]
14 | 184 | CC1(c2nnc(C(F)F)o2)C(=O)Nc2nc(-c3cn4ncnc4c(CCCC(F)(F)F)n3)nc(N)c21 (stereo not drawn) [Example 100A, 4-amino-5-(5-(difluoromethyl)-1,3,4-oxadiazol-2-yl)-5-methyl-2-(8-(4,4,4-trifluorobutyl)-[1,2,4]triazolo[1,5-a]pyrazin-6-yl)-5H-pyrrolo[2,3-d]pyrimidin-6(7H)-one]
15 | 133 | CC1(c2ccc(C(F)(F)F)cc2)C(=O)Nc2nc(-c3cn4ncnc4c(CCCC(F)(F)F)n3)nc(N)c21 (stereo not drawn) [Example 24B, 4-amino-5-methyl-2-(8-(4,4,4-trifluorobutyl)-[1,2,4]triazolo[1,5-a]pyrazin-6-yl)-5-(4-(trifluoromethyl)phenyl)-5H-pyrrolo[2,3-d]pyrimidin-6(7H)-one]
16 | 130 | CC1(c2ccc(F)cn2)C(=O)Nc2nc(-c3cn4ncnc4c(CCCC(F)(F)F)n3)nc(N)c21 (stereo not drawn) [Example 22B, 4-amino-5-(5-fluoropyridin-2-yl)-5-methyl-2-(8-(4,4,4-trifluorobutyl)-[1,2,4]triazolo[1,5-a]pyrazin-6-yl)-5H-pyrrolo[2,3-d]pyrimidin-6(7H)-one]
17 | 144 | CC1(c2ncc(C(F)(F)F)cn2)C(=O)Nc2nc(-c3cn4ncnc4c(CCCC(F)(F)F)n3)nc(N)c21 (racemic) [Example 51B, 4-amino-5-methyl-2-(8-(4,4,4-trifluorobutyl)-[1,2,4]triazolo[1,5-a]pyrazin-6-yl)-5-(5-(trifluoromethyl)pyrimidin-2-yl)-5H-pyrrolo[2,3-d]pyrimidin-6(7H)-one]
18 | 90 | CC1(c2cccc(F)c2)C(=O)Nc2nc(-c3cn4ncnc4c(CCC(F)(F)C(F)(F)F)n3)nc(N)c21 (stereo not drawn) [Example 14B, 4-amino-5-(3-fluorophenyl)-5-methyl-2-(8-(3,3,4,4,4-pentafluorobutyl)-[1,2,4]triazolo[1,5-a]pyrazin-6-yl)-5H-pyrrolo[2,3-d]pyrimidin-6(7H)-one]
19 | 92 | CC1(c2nnc(C3(F)CC3)o2)C(=O)Nc2nc(-c3cn4ncnc4c(CCCC(F)(F)F)n3)nc(N)c21 (stereo not drawn) [Example 109A, 4-amino-5-(5-(1-fluorocyclopropyl)-1,3,4-oxadiazol-2-yl)-5-methyl-2-(8-(4,4,4-trifluorobutyl)-[1,2,4]triazolo[1,5-a]pyrazin-6-yl)-5H-pyrrolo[2,3-d]pyrimidin-6(7H)-one]
20 | 144 | Nc1nc(-c2cn3ncnc3c(CCCC(F)(F)F)n2)nc2c1C(c1ccc(F)c(F)c1)(C1CC1)C(=O)N2 (stereo not drawn) [Example 32A, 4-amino-5-cyclopropyl-5-(3,4-difluorophenyl)-2-(8-(4,4,4-trifluorobutyl)-[1,2,4]triazolo[1,5-a]pyrazin-6-yl)-5H-pyrrolo[2,3-d]pyrimidin-6(7H)-one]
21 | 102 | CC1(c2ccc(C(F)(F)F)cc2)C(=O)Nc2nc(-c3cn4ncnc4c(CCCC(F)(F)F)n3)nc(O)c21 (stereo not drawn) [Example 137B, 4-hydroxy-5-methyl-2-(8-(4,4,4-trifluorobutyl)-[1,2,4]triazolo[1,5-a]pyrazin-6-yl)-5-(4-(trifluoromethyl)phenyl)-5H-pyrrolo[2,3-d]pyrimidin-6(7H)-one]
